Target: T1, BoCE6–CE1 (Bacteroides ovatus, UniProt A0ABU3ING8)
T1 construct: gene RO706_05995
Assay: absorbance […] nm
Type: biochemical
Conditions: […] °C, […] buffer

T1 sequence (A0ABU3ING8 20-638): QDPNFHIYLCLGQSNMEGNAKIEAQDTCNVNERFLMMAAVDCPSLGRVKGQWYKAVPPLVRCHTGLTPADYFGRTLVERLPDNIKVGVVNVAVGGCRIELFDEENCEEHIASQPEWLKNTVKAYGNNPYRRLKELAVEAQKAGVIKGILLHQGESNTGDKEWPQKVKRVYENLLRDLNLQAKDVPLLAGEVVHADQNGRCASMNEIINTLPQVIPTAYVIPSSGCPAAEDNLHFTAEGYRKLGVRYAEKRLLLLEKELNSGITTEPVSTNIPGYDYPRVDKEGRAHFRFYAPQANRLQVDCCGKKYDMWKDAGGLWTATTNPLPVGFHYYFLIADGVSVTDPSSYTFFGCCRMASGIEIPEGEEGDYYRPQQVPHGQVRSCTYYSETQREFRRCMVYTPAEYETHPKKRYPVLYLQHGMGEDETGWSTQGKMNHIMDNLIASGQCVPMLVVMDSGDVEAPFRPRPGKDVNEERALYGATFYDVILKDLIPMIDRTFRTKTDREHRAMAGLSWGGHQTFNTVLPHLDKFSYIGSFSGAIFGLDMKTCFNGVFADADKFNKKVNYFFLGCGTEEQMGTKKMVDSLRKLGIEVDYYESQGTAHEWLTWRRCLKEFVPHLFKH

Structure (SMILES)	absorbance 340 nm
COC(=O)/C=C/c1ccc(O)c(OC)c1 [MFA]	The activity on MFA and MSA was in the same order of magnitude for the full-length
COC(=O)/C=C/c1cc(OC)c(O)c(OC)c1 [MSA]	The activity on MFA and MSA was in the same order of magnitude for the full-length
